Blank lines part the entries; values can stand above or below the compound they belong to.
Columns and labels:
Wnt3a = assay: Quantitative RT-PCR of Wnt3a expression during cardiac differentiation; assay type: cell-based, human; details: CHIR99021 6 μM day 0, 1.5 μM day 1; SB203580 and TA-01 5 μM
[1] = system: HES‐3 (NKX2‐5eGFP/w reporter cell line); assay type: cell-based, human; details: for Induction of cardiomyogenesis in HES-3 cells: 5 μM, days 3–5, day 13; for Percentage of NKX2‐5/GFP positive cells: HES-3, 5 μM (IWR-1: 2.5 μM), days 3–5, flow cytometry day 13, DMSO 14%
H1 cells = assay: Monolayer cardiac differentiation, H1 cells; assay type: cell-based, human; details: days 3–5, day 13; for Cardiac differentiation in H1 cells: 5 μM; for NKX2‐5/cTnT‐positive cells: H1, 5 μM (IWR-1: 2.5 μM)
IMR‐90 cells = assay: Monolayer cardiac differentiation, IMR-90 cells; assay type: cell-based, human; details: 5 μM (IWR-1: 2.5 μM), days 3–5, day 13
hPSCs = details: for Cell proliferation during neural differentiation: 5 and 10 μM, days 1 to 9, cell count day 9
[2] = system: HES‐3 (NKX2–5eGFP/w reporter cell line); details: 5 μM, days 3–5, image analysis on day 13
[3] = system: NKX2‐5/GFP‐positive cells; details: added from days 4 to 8; cited from earlier work
BMPR1B kinase = details: percentage of control; cited from earlier work
TGFBR2 [4] = molecular target: T1, TGFBR2 (Homo sapiens, UniProt P37173); details: 1 μM compound
T1 sequence (P37173 23-567): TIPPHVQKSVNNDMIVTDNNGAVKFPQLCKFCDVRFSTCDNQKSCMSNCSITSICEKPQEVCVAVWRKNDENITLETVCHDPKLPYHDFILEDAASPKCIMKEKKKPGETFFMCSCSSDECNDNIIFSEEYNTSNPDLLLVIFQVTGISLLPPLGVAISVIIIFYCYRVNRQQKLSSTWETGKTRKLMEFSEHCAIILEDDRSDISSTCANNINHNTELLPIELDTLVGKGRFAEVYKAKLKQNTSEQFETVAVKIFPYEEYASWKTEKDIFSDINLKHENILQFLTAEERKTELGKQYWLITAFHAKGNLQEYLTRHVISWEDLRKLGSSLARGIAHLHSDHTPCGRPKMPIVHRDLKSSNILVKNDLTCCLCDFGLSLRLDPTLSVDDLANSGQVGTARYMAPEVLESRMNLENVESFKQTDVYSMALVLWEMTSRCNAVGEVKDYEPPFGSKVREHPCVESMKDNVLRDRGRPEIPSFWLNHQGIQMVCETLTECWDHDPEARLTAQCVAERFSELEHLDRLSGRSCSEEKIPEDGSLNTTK

TGFBR2 [5] = molecular target: T1, TGFBR2; details: cited from earlier work
[6] = Permeability test: mass retention to the artificial membrane; assay type: in vitro ADME
[7] = system: SMAD2 phosphorylation (TGFβ pathway); details: 5 μM, day 3, 30 minutes to 8 hours
ALK5 = molecular target: T2, ALK5 (Homo sapiens, UniProt P36897); assay: LanthaScreen Eu Kinase binding assay, ALK5; details: for IC50: read-out: ALK5 IC50 ± SEM, mean ± SEM, triplicate
T2 sequence (P36897 34-503): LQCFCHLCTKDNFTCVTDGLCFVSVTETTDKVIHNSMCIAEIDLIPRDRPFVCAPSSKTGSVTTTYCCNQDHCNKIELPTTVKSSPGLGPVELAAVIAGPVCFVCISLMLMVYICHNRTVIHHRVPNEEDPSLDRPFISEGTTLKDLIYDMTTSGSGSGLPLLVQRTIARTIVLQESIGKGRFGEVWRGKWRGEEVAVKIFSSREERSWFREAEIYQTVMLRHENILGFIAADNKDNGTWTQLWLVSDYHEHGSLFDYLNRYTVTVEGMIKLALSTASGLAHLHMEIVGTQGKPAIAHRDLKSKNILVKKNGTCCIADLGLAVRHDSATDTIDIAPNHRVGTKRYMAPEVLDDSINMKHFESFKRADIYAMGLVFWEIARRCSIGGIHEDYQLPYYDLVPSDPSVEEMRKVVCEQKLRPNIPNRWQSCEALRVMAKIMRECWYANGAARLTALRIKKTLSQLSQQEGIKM

[8] = system: SMAD/GFP reporter cell line (TGFβ pathway); details: 5 μM, then TGFβ3 2, 100, 1000 ng/ml

SMILES: Cc1c[nH]c(-c2cnc(NCCNc3ccc(C#N)cn3)nc2-c2ccc(Cl)cc2Cl)n1 [CHIR99021]
- Suppression of Wnt3a expression on day 3 (Wnt3a): expression of Wnt3a was suppressed

SMILES: Cc1cccc(-c2[nH]ncc2-c2ccc(F)c(-c3cnn(CCO)c3)c2)n1 [Compound R268712]
- Induction of cardiomyogenesis in HES-3 cells [1]: failed to induce cardiomyogenesis
- Cardiac differentiation in H1 cells (H1 cells): promoted cardiac differentiation
- Cardiac differentiation in IMR-90 cells (IMR‐90 cells): promoted cardiac differentiation

SMILES: CCOC(=O)C1=C(C)NC2=C(C(=O)CC(C)(C)C2)C1c1ccc(-c2ccccc2)cc1 (stereo not shown) [ITD‐1]
- Cell proliferation during neural differentiation (hPSCs): inhibit cell proliferation
- Percentage of NKX2‐5/GFP positive cells [1]: 25%
- NKX2‐5/cTnT‐positive cells (H1 cells): ~ 40%

SMILES: Cc1ccc2nc(NC(=O)CSc3nc4c(c(=O)n3-c3ccccc3)SCC4)sc2c1 [IWP-2, reference compound]
- NKX2-5/GFP expression of EBs compared with TA-01 [2]: higher GFP expression than the lead compound TA‐01

SMILES: O=C(Nc1cccc2cccnc12)c1ccc(N2C(=O)[C@@H]3[C@H](C2=O)[C@@H]2C=C[C@H]3C2)cc1 [IWR-1]
- NKX2‐5/cTnT‐positive cells (H1 cells): approximately 80%
- Axin 1 and 2 expression (Wnt/β‐catenin pathway; 2.5 μM): upregulation
- Cardiac differentiation in IMR-90 cells (IMR‐90 cells): did not increase

SMILES: Cc1cccc(-c2[nH]ncc2-c2ccc3ncccc3n2)n1 [RepSox]
- Induction of cardiomyogenesis in HES-3 cells [1]: failed to induce cardiomyogenesis
- Cardiac differentiation in H1 cells (H1 cells): promoted cardiac differentiation
- Cardiac differentiation in IMR-90 cells (IMR‐90 cells): promoted cardiac differentiation

SMILES: C[S+]([O-])c1ccc(-c2nc(-c3ccncc3)c(-c3ccc(F)cc3)[nH]2)cc1 (stereo not shown) [SB203580]
- Suppression of Wnt3a expression on day 3 (Wnt3a): not observed

SMILES: Fc1ccc(Cl)cc1-c1nc(Nc2ccncc2)c2nccnc2n1 [SD208]
- Induction of cardiomyogenesis in HES-3 cells [1]: failed to induce cardiomyogenesis
- Cardiac differentiation in H1 cells (H1 cells): promoted cardiac differentiation
- Cardiac differentiation in IMR-90 cells (IMR‐90 cells): promoted cardiac differentiation

- Percentage inhibition of TGFBR2 at 1 μM (TGFBR2 [4]): 91%
- Permeability compared with IWR-1 and CHIR99021 [6]: less permeable
SMILES: Fc1ccc(-c2nc(-c3c(F)cccc3F)[nH]c2-c2ccncc2)cc1 [TA-01]
- Increase in the percentage expression of NKX2‐5/GFP‐positive cells over DMSO [3]: threefold
- BMPR1B binding, POC at 10 μM (BMPR1B kinase): 6.2
- Percentage of NKX2‐5/GFP positive cells [1]: 30%–40%
- Suppression of Wnt3a expression on day 3 (Wnt3a): not observed
- TGFBR2 binding, percentage of control at 10 μM (TGFBR2 [5]): 1.6

SMILES: Fc1ccc(-c2nc(-c3ccccc3)[nH]c2-c2ccncc2)cc1 [TI-14, 4-(4(5)-(4-Fluorophenyl)-2-phenyl-1H-imidazol-5(4)-yl)pyridine]
- NKX2-5/GFP expression of EBs compared with TA-01 [2]: higher GFP expression than the lead compound TA‐01

- Percentage inhibition of TGFBR2 at 1 μM (TGFBR2 [4]): 80%
- Permeability compared with IWR-1 and CHIR99021 [6]: less permeable
- Potency in the inhibition of ALK5 relative to TA‐01 (ALK5; ratio of IC50 values): approximately 10 times
SMILES: Fc1ccc(-c2nc(-c3c(Cl)cccc3Cl)[nH]c2-c2ccncc2)cc1 [TI-15, 4-(2-(2,6-Dichlorophenyl)-4(5)-(4-fluorophenyl)-1H-imidazol-5(4)-yl)pyridine]
- Cell growth during neural differentiation at 2.5 μM (hPSCs; 2.5 μM, days 1 to 9): not at the concentration of 2.5 μM
- Cell proliferation during neural differentiation (hPSCs): inhibit cell proliferation
- Cell proliferation during cardiac differentiation, dosing days 2–5 ([1]; days 2–5, data not shown): inhibition of cell proliferation
- Cell growth during cardiac differentiation, dosing days 3–5 ([1]; days 3–5): does not inhibit cell growth
- Phosphorylation of SMAD2 protein at Ser 465/467 [7]: significantly reduced
- β‐catenin phosphorylation on Ser552/675 and downstream TCF‐1/LEF‐1 expression (Wnt/β‐catenin pathway; 5 μM, day 3, 1, 4 and 8 hours after treatment): expression levels did not change
- NKX2-5/GFP expression of EBs compared with TA-01 [2]: higher GFP expression than the lead compound TA‐01
- Numbers of GFP‐positive cells (nuclear SMAD/GFP reporter) [8]: reduced

SMILES: COc1ccccc1-c1nc(-c2ccc(F)cc2)c(-c2ccncc2)[nH]1 [TI-16, 4-(2-(2-Methoxyphenyl)-4(5)-(4-fluorophenyl)-1H-imidazol-5(4)-yl)pyridine]
- NKX2-5/GFP expression of EBs compared with TA-01 [2]: higher GFP expression than the lead compound TA‐01

- IC50 (ALK5): 747 nM
SMILES: COc1cccc(OC)c1-c1nc(-c2ccc(F)cc2)c(-c2ccncc2)[nH]1 [TI-18, 4-(2-(2,6-Dimethoxyphenyl)-4(5)-(4-fluorophenyl)-1H-imidazol-5(4)-yl)pyridine]

SMILES: COc1cccc(F)c1-c1nc(-c2ccc(F)cc2)c(-c2ccncc2)[nH]1 [TI-20, 4-(2-(2-Fluoro-6-methoxyphenyl)-4(5)-(4-fluorophenyl)-1H-imidazol-5(4)-yl)pyridine]
- NKX2-5/GFP expression of EBs compared with TA-01 [2]: higher GFP expression than the lead compound TA‐01

- IC50 (ALK5): 10.9 nM
SMILES: Fc1ccc(-c2nc(-c3c(F)cccc3Br)[nH]c2-c2ccncc2)cc1 [TI-21, 4-(2-(2-Bromo-6-fluorophenyl)-4(5)-(4-fluorophenyl)-1H-imidazol-5(4)-yl)pyridine]
- NKX2-5/GFP expression of EBs compared with TA-01 [2]: higher GFP expression than the lead compound TA‐01

- IC50 (ALK5): 13.1 nM
SMILES: O=[N+]([O-])c1cccc(Cl)c1-c1nc(-c2ccc(F)cc2)c(-c2ccncc2)[nH]1 [TI-24, 4-(2-(2-Chloro-6-nitrophenyl)-4(5)-(4-fluorophenyl)-1H-imidazol-5(4)-yl)pyridine]
- NKX2-5/GFP expression of EBs compared with TA-01 [2]: higher GFP expression than the lead compound TA‐01

SMILES: COc1cc(O)c(-c2nc(-c3ccc(F)cc3)c(-c3ccncc3)[nH]2)c(OC)c1 [TI-25, 2-(4(5)-(4-Fluorophenyl)-5(4)-(pyridin-4-yl)-1H-imidazol-2-yl)-3,5-dimethoxyphenol]
- NKX2-5/GFP expression of EBs compared with TA-01 [2]: higher GFP expression than the lead compound TA‐01

SMILES: O=[N+]([O-])c1ccccc1-c1nc(-c2ccc(F)cc2)c(-c2ccncc2)[nH]1 [TI-26, 4-(4(5)-(4-Fluorophenyl)-2-(2-nitrophenyl)-1H-imidazol-5(4)-yl)pyridine]
- NKX2-5/GFP expression of EBs compared with TA-01 [2]: higher GFP expression than the lead compound TA‐01

SMILES: Cc1cccc(C)c1-c1nc(-c2ccc(F)cc2)c(-c2ccncc2)[nH]1 [TI-27, 4-(2-(2,6-Dimethylphenyl)-4(5)-(4-fluorophenyl)-1H-imidazol-5(4)-yl)pyridine]
- NKX2-5/GFP expression of EBs compared with TA-01 [2]: higher GFP expression than the lead compound TA‐01

- IC50 (ALK5): 22.1 nM
SMILES: Fc1ccc(-c2nc(-c3c(F)cccc3I)[nH]c2-c2ccncc2)cc1 [TI-29, 4-(2-(2-Fluoro-6-iodophenyl)-4(5)-(4-fluorophenyl)-1H-imidazol-5(4)-yl)pyridine]

SMILES: Fc1ccc(-c2nc(-c3ccc4ccccc4c3Br)[nH]c2-c2ccncc2)cc1 [TI-33, 4-(2-(1-Bromonaphthalen-2-yl)-4(5)-(4-fluorophenyl)-1H-imidazol-5(4)-yl)pyridine]
- NKX2-5/GFP expression of EBs compared with TA-01 [2]: higher GFP expression than the lead compound TA‐01

- Percentage inhibition of TGFBR2 at 1 μM (TGFBR2 [4]): 81%
SMILES: Fc1ccc(-c2nc(C3CCCCC3)[nH]c2-c2ccncc2)cc1 [TI-34, 4-(2-Cyclohexyl-4(5)-(4-fluorophenyl)-1H-imidazol-5(4)-yl)pyridine]

SMILES: Fc1ccc(-c2c(-c3ccncc3)ncn2-c2ccccc2)cc1 [TI-38, 4-(5-(4-Fluorophenyl)-1-phenyl-1H-imidazol-4-yl)pyridine]
- Cell proliferation during neural differentiation (hPSCs): inhibit cell proliferation

- Permeability compared with IWR-1 and CHIR99021 [6]: less permeable
SMILES: Fc1ccc(-c2nc(-c3ccc4ccccc4c3F)[nH]c2-c2ccncc2)cc1 [TI-42, 4-(2-(1-Fluoronaphthalen-2-yl)-4(5)-(4-fluorophenyl)-1H-imidazol-5(4)-yl)pyridine]
